Results: patent US7138361B2, “Herbicidal heterocycles” (E. I. du Pont de Nemours and Company, priority 2000, dated 2006)

Columns and labels:
Format in all cases: in vivo
[1] = test system: Sunflower; experiment: Test C preemergence; conditions: Rate 250 g/ha, visual evaluation after 12 to 14 days
[2] = test system: kochia (Kochia scoparia); experiment: Test C preemergence
Procedure, shortened: (§1)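 Plants held in greenhouse for 12–14 days post-application are scored by eye against controls on a 0–100 control scale. Application timing: preemergence on sown seed, or postemergence on 2–18 cm plants.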

[3] = test system: johnsongrass (Sorghum halepense); experiment: Test C preemergence
Procedure, shortened: as §1

[4] = test system: goosegrass (Eleusine indica); experiment: Test C preemergence
Procedure, shortened: as §1

[5] = test system: Sunflower; experiment: Test C preemergence; conditions: Rate 62 g/ha; scale 0 to 100, 0 no effect, 100 complete control
[6] = test system: morningglory (Ipomoea hederacea); experiment: Test C preemergence
Procedure, shortened: as §1

[7] = test system: pigweed (Amaranthus retroflexus); experiment: Test C preemergence
Procedure, shortened: as §1

[8] = test system: lambsquarters (Chenopodium album); experiment: Test C preemergence
Procedure, shortened: as §1

[9] = test system: woolly cupgrass (Eriochloa villosa); experiment: Test C preemergence
Procedure, shortened: as §1

[10] = test system: corn (Zea mays); experiment: Test C preemergence
Procedure, shortened: as §1

[11] = test system: giant foxtail (Setaria faberii); experiment: Test C preemergence
Procedure, shortened: as §1

[12] = test system: crabgrass (Digitaria sanguinalis); experiment: Test C preemergence
Procedure, shortened: as §1

[13] = test system: bermudagrass (Cynodon dactylon); experiment: Test C preemergence
Procedure, shortened: as §1

[14] = test system: soybean (Glycine max); experiment: Test C preemergence
Procedure, shortened: as §1

[15] = test system: Nightshade; experiment: Test C preemergence
[16] = test system: Surinam grass (Brachiaria decumbens); experiment: Test C preemergence
Procedure, shortened: as §1

[17] = test system: velvetleaf (Abutilon theophrasti); experiment: Test C preemergence
Procedure, shortened: as §1

[18] = test system: yellow nutsedge (Cyperus esculentus); experiment: Test C preemergence
Procedure, shortened: as §1

[19] = test system: common ragweed (Ambrosia elatior); experiment: Test C preemergence
Procedure, shortened: as §1

[20] = test system: cocklebur (Xanthium strumarium); experiment: Test C preemergence
Procedure, shortened: as §1

[21] = test system: barnyardgrass (Echinochloa crus-galli); experiment: Test C flooded paddy test; conditions: for Barnyardgrass plant response rating: Flooded Paddy, scale 0 to 100, 0 no effect, 100 complete control; for Plant response rating, Barnyardgrass: flooded paddy test, scale 0 to 100 (0 no effect, 100 complete control)
Procedure, shortened: (§2)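 Visually assessed vs untreated controls 12–14 d post-treatment (greenhouse). Flooded paddy plants were at the 2-leaf stage; scale 0 = no effect, 100 = complete control.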

[22] = test system: rice (Oryza saliva); experiment: Test C flooded paddy test; conditions: for Rice plant response rating: Flooded Paddy, scale 0 to 100, 0 no effect, 100 complete control; for Plant response rating, Rice: flooded paddy test, scale 0 to 100 (0 no effect, 100 complete control)
Procedure, shortened: as §2

[23] = Rate 62 g/ha, scale 0 to 100, 0 no effect, 100 complete control
[24] = preemergence, Rate 31 g/ha, scale 0 to 100
[25] = preemergence, Rate 250 g/ha, visual evaluation after 12 to 14 days
[26] = preemergence, Rate 125 g/ha, scale 0 to 100, 0 no effect, 100 complete control

In the case of `CC(C)(C)c1ccn(C2SCN(c3cccc(OC(F)F)c3)C2=O)n1` (centres unmarked) [Compound 36], the “Plant response rating (0 to 100), Sunflower” value [1] is reported as 30, the “Plant response rating, Kochia” value [2, 23] is reported as 100 and the “Plant response rating, Kochia” value [2, 24] is reported as 70. For the same compound, the “Plant response rating (0 to 100), Kochia” value [2, 25] was 100, the “Plant response rating, Kochia” value [2, 26] was 100 and the “Plant response rating, Johnsongrass” value [3, 23] was 90. For the same compound, the “Plant response rating, Johnsongrass” value [3, 24] was 50, the “Plant response rating (0 to 100), Johnsongrass” value [3, 25] was 100 and the “Plant response rating, Johnsongrass” value [3, 26] was 90. For the same compound, the “Plant response rating, Goosegrass” value [4, 23] was 100, the “Plant response rating, Goosegrass” value [4, 24] was 90 and the “Plant response rating (0 to 100), Goosegrass” value [4, 25] was 100. The “Plant response rating, Goosegrass” value [4, 26] was 100, the “Plant response rating, Sunflower” value [5] was 0 and the “Plant response rating, Morningglory” value [6, 23] was 0. For the same compound, the “Plant response rating, Morningglory” value [6, 24] was 0, the “Plant response rating (0 to 100), Morningglory” value [6, 25] was 50 and the “Plant response rating, Morningglory” value [6, 26] was 0. For the same compound, the “Plant response rating, Pigweed” value [7, 23] was 0, the “Plant response rating, Pigweed” value [7, 24] was 0 and the “Plant response rating (0 to 100), Pigweed” value [7, 25] was 100. The “Plant response rating, Pigweed” value [7, 26] was 0, the “Plant response rating, Lambsquarters” value [8, 23] was 100 and the “Plant response rating, Lambsquarters” value [8, 24] was 100. For the same compound, the “Plant response rating (0 to 100), Lambsquarters” value [8, 25] was 100, the “Plant response rating, Lambsquarters” value [8, 26] was 100 and the “Plant response rating, Cupgrass, Woolly” value [9, 23] was 60. For the same compound, the “Plant response rating, Cupgrass, Woolly” value [9, 24] was 30, the “Plant response rating (0 to 100), Cupgrass, Woolly” value [9, 25] was 100 and the “Plant response rating, Cupgrass, Woolly” value [9, 26] was 100. For the same compound, the “Plant response rating, Corn” value [10, 23] was 20, the “Plant response rating, Corn” value [10, 24] was 0 and the “Plant response rating (0 to 100), Corn” value [10, 25] was 80. For the same compound, the “Plant response rating, Corn” value [10, 26] was 40, the “Plant response rating, Foxtail, Giant” value [11, 23] was 0 and the “Plant response rating, Foxtail, Giant” value [11, 24] was 90. The “Plant response rating (0 to 100), Foxtail, Giant” value [11, 25] was 100, the “Plant response rating, Foxtail, Giant” value [11, 26] was 100 and the “Plant response rating, Crabgrass” value [12, 23] was 100. The “Plant response rating, Crabgrass” value [12, 24] was 90, the “Plant response rating (0 to 100), Crabgrass” value [12, 25] was 100 and the “Plant response rating, Crabgrass” value [12, 26] was 100. For the same compound, the “Plant response rating, Bermudagrass” value [13, 23] was 100, the “Plant response rating, Bermudagrass” value [13, 24] was 100 and the “Plant response rating (0 to 100 where 0 is no effect and 100 is complete control), Bermudagrass” value [13, 25] was 100. For the same compound, the “Plant response rating, Bermudagrass” value [13, 26] was 100, the “Plant response rating, Soybean” value [14, 23] was 30 and the “Plant response rating, Soybean” value [14, 24] was 30. For the same compound, the “Plant response rating (0 to 100), Soybean” value [14, 25] was 50, the “Plant response rating, Soybean” value [14, 26] was 50 and the “Plant response rating, Nightshade” value ([15]; Rate 31 g/ha, scale 0 to 100) was 0. The “Plant response rating, Nightshade” value [15, 23] was 30, the “Plant response rating, Nightshade” value ([15]; Rate 125 g/ha, scale 0 to 100, 0 no effect, 100 complete control) was 50 and the “Plant response rating, Surinam grass” value [16, 23] was 70. The “Plant response rating, Surinam grass” value [16, 24] was 20, the “Plant response rating (0 to 100), Surinam grass” value [16, 25] was 100 and the “Plant response rating, Surinam grass” value [16, 26] was 70. The “Plant response rating, Velvetleaf” value [17, 23] was 0, the “Plant response rating, Velvetleaf” value [17, 24] was 0 and the “Plant response rating (0 to 100), Velvetleaf” value [17, 25] was 40. For the same compound, the “Plant response rating, Velvetleaf” value [17, 26] was 0, the “Plant response rating, Nutsedge” value [18, 23] was 0 and the “Plant response rating, Nutsedge” value [18, 24] was 0. For the same compound, the “Plant response rating (0 to 100), Nutsedge” value [18, 25] was 30, the “Plant response rating, Nutsedge” value [18, 26] was 30 and the “Plant response rating, Ragweed, Common” value [19, 23] was 0. For the same compound, the “Plant response rating, Ragweed, Common” value [19, 24] was 0, the “Plant response rating (0 to 100), Ragweed, Common” value [19, 25] was 50 and the “Plant response rating, Ragweed, Common” value [19, 26] was 30. The “Plant response rating, Cocklebur” value [20, 23] was 30, the “Plant response rating, Cocklebur” value [20, 24] was 0 and the “Plant response rating (0 to 100), Cocklebur” value [20, 25] was 30. For the same compound, the “Barnyardgrass plant response rating” value ([21]; Rate 250 g/ha) was 100, the “Barnyardgrass plant response rating” value ([21]; Rate 500 g/ha) was 100 and the “Plant response rating, Barnyardgrass” value ([21]; Rate 62 g/ha) was 100. The “Plant response rating, Barnyardgrass” value ([21]; Rate 125 g/ha) was 100, the “Rice plant response rating” value ([22]; Rate 250 g/ha) was 90 and the “Rice plant response rating” value ([22]; Rate 500 g/ha) was 90. The “Plant response rating, Rice” value ([22]; Rate 62 g/ha) was 30 and the “Plant response rating, Rice” value ([22]; Rate 125 g/ha) was 80.
